ChEMBL document CHEMBL1201862, “PubChem BioAssay data set” (2004)
The source made the active and inactive calls.

What was measured:
[1] = cells; conditions: HEK293
[2] = Luminescence Cell-Based Dose Confirmation HTS to Identify Activators of 5'UTR Stem-Loop Driven Alpha-Synuclein mRNA Translation in H4 Neuroglioblastoma Cells. [Related pubchem assays: 1829 (Project Summary), 1814 (Primary HTS)]; format: functional
[3] = tested on: H4; experiment: Luminescence Cell-Based Dose Response HTS to Identify Activators of 5'UTR Stem-Loop Driven Prion Protein mRNA Translation in H4 Neuroglioblastoma Cells. [Related pubchem assays: 1829 (Project Summary), 1814 (Primary HTS)]; format: functional; conditions: Homo sapiens
[4] = cells
[5] = Luminescence Cell-Based Dose Response HTS to Identify Activators of Luciferase Translation or Activity in H4 […] Cells. [Related pubchem assays: 1829 (Project Summary), 1814 (Primary HTS)]; format: functional
[6] = tested on: Streptococcus sp. 'group A'; experiment: Streptococcus pyogenes SK(-)GAS viability under kanamycin – luminescence, BacTiterGlo, confirmation, counter-screen for streptokinase expression inhibitor project, dose response (AID 1900); format: functional, organism-based
[7] = tested on: Streptococcus; experiment: GAS UMAA2166 growth inhibition – luminescence, BacTiterGlo, counter-screen for streptokinase expression inhibitor project, dose response (AID 1915); format: functional, organism-based;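 further: potency for reduction of bacterial viability or growth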
[8] = target: Eukaryotic translation initiation factor 4E (Mus musculus, UniProt P63073); experiment: blockers of eIF4G binding by eIF4E – biochemical, TR-FRET, dose response (AID 855); format: functional;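 further: potency for disrupting eIF4E binding to eIF4GI seen as loss of FRET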
[9] = target: Induced myeloid leukemia cell differentiation protein Mcl-1 (Homo sapiens, UniProt Q07820); format: functional
[10] = target: Matrix metalloproteinase-14 (Homo sapiens, UniProt P50281); experiment: Dose Response confirmation of uHTS hits for a small molecule inhibitors of MT1-MMP activation in a fluorescence assay set 2.; format: functional
[11] = target: Steroidogenic factor 1 (Homo sapiens, UniProt Q13285); experiment: Counterscreen for inverse agonists of the liver receptor homolog-1 (LRH-1; NR5A2): Luminescence-based cell-based high throughput dose response assay to identify inverse agonists of the Steroidogenic Factor 1 Nuclear Receptor (SF1; NR5A1).; format: functional
[12] = target: Nuclear receptor subfamily 5 group A member 2 (Homo sapiens, UniProt O00482); format: functional, cell-based;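 further: HEK293T cells transfected with LRH-1 and a StAR promoter luciferase reporter; potency for inhibitors that lower LRH-1 driven reporter light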
[13] = dual-tagged ARNT PAS-B bead signal quenchers – biochemical, dry powder, artefact control for ARNT/TACC3 disruptor project, dose response (AID 720564)
[14] = nonselective StAR promoter luciferase inhibitors – cell-based, luminescence, luciferase reporter, counter-screen for LRH-1 inverse agonist project, dose response (AID 651969); format: functional
[15] = HGIII-sPLA2 enzyme inhibition potency – biochemical, QFRET, IC50, dose response (AID 743457);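 further: green fluorescence rise as the enzyme cleaves BODIPY PC-A2 in liposomes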
[16] = target: T1, Corticotropin-releasing factor receptor 2/Corticotropin-releasing factor-binding protein (Homo sapiens, UniProt P24387+Q13324); experiment: activators of CRF receptor 2 with binding protein – uHTS hits, confirmation (AID 602473); format: functional; conditions: read-out: EC50_Mean
T1 sequence (Q13324 whole entry): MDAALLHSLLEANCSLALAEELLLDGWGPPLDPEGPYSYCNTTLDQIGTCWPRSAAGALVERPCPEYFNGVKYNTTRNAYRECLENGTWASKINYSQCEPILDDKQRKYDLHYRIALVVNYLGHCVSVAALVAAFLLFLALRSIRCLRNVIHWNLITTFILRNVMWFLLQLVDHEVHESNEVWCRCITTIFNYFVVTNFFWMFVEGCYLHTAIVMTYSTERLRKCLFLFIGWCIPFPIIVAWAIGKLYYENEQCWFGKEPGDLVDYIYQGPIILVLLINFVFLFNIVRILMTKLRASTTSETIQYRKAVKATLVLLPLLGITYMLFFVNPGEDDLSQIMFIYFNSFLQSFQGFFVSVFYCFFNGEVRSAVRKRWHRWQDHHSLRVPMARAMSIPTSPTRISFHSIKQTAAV
T1 sequence (P24387 whole entry): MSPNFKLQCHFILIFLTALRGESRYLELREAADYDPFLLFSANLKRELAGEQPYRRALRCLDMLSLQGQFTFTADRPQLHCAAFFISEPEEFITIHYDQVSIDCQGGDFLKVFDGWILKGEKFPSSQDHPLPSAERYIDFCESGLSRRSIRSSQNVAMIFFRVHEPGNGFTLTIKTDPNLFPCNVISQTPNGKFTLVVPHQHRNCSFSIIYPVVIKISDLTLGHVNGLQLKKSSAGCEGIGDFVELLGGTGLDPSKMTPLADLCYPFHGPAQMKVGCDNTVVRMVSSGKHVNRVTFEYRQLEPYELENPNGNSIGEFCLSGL

[17] = tested on: Vero; experiment: cells; format: functional, cell-based; conditions: Chlorocebus sabaeus
[18] = tested on: Vero; experiment: cells; format: functional; conditions: Chlorocebus sabaeus
[19] = tested on: A549; experiment: viability loss in A549 cells – cell-based, plate reader, cherry-pick samples, cytotoxicity control, dose response (AID 687028); format: functional; conditions: Homo sapiens
[20] = target: Voltage-gated inwardly rectifying potassium channel KCNH2 (Homo sapiens, UniProt Q12809); experiment: off-target hERG block by TASK1 inhibitor candidates – FluxOR thallium flux, concentration-response, CHO cells, selectivity assay for TASK1 inhibitor project, SAR follow-up (AID 652194); format: functional, cell-based
[21] = target: Potassium channel subfamily K member 3 (Homo sapiens, UniProt O14649); experiment: inhibition of human KCNK3 channel flux – CHO cells, FluxOR thallium flux, SAR follow-up (AID 652212); format: functional
Potassium channel subfamily K member 3, sequence (O14649 whole entry): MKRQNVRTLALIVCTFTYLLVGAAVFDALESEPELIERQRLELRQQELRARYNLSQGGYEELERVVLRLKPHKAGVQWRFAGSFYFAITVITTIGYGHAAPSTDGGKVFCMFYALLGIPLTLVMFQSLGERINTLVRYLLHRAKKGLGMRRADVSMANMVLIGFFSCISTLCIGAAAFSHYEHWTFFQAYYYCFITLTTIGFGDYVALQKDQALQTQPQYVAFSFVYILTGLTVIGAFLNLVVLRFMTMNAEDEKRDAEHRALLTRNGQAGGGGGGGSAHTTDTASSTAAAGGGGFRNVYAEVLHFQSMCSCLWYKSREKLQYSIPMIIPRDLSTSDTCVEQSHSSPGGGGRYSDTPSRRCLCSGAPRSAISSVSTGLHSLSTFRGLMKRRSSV

Steroidogenic factor 1, sequence (Q13285 whole entry): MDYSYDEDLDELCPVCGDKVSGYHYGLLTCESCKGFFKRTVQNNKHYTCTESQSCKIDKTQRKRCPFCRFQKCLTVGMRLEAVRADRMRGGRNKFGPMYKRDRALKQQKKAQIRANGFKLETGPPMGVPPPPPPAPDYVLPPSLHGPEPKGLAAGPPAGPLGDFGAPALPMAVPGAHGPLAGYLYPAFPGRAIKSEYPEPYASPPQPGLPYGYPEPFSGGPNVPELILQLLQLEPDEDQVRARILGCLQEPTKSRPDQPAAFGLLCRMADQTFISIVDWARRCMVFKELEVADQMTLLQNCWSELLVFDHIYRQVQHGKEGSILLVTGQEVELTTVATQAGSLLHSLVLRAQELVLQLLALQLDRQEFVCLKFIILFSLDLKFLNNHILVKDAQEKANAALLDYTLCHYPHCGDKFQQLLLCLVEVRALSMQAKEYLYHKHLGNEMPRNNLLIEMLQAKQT
Voltage-gated inwardly rectifying potassium channel KCNH2, sequence (Q12809 whole entry): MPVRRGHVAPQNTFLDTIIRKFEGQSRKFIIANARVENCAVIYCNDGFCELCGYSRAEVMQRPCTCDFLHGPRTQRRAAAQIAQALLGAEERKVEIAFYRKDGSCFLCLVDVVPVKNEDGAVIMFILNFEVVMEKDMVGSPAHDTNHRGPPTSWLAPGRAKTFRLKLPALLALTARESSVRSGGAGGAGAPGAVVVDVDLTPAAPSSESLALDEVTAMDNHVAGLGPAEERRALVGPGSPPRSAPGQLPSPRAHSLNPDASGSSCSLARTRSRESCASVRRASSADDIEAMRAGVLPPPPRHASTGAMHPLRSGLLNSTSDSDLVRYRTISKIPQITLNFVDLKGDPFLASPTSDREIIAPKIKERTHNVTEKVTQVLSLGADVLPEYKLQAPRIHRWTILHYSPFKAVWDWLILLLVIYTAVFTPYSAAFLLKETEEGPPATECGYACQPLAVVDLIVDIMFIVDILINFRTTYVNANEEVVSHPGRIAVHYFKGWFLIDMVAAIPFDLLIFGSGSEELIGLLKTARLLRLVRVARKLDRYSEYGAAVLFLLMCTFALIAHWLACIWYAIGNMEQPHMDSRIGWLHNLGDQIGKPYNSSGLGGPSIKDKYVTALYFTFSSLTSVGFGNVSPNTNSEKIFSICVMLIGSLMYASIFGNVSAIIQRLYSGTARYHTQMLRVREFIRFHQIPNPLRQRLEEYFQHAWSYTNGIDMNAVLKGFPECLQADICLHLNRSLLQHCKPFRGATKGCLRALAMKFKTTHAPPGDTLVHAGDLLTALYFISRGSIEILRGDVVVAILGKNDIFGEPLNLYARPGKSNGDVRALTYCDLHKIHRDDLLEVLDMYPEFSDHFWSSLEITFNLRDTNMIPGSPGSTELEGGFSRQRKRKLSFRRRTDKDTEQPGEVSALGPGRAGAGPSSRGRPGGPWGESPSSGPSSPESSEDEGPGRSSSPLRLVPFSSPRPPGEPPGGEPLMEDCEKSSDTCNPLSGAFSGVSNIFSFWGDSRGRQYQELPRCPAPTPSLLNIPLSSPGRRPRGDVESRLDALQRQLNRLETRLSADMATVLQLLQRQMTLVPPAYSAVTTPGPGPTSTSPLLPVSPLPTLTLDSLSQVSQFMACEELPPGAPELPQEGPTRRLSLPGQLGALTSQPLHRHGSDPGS
Nuclear receptor subfamily 5 group A member 2, sequence (O00482 whole entry): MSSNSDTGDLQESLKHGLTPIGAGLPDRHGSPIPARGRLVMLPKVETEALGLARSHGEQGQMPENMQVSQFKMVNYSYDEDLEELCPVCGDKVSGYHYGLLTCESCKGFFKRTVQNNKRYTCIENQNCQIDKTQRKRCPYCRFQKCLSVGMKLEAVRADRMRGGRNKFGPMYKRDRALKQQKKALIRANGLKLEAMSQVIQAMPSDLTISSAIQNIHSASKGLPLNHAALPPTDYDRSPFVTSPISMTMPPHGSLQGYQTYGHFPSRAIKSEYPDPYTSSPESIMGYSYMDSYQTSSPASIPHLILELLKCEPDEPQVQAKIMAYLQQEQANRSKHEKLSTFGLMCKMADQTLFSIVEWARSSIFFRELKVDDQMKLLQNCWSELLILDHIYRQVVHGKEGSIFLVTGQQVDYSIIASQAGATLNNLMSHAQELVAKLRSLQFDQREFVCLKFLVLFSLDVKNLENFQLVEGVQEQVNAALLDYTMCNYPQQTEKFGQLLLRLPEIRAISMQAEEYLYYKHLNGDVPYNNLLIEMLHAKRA
Eukaryotic translation initiation factor 4E, sequence (P63073 whole entry): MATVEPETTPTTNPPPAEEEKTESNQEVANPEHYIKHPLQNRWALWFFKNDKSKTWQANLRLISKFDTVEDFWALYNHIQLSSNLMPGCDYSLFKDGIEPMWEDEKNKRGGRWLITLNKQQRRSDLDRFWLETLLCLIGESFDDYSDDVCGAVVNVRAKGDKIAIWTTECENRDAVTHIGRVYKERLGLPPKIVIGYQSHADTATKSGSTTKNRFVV
Induced myeloid leukemia cell differentiation protein Mcl-1, sequence (Q07820 whole entry): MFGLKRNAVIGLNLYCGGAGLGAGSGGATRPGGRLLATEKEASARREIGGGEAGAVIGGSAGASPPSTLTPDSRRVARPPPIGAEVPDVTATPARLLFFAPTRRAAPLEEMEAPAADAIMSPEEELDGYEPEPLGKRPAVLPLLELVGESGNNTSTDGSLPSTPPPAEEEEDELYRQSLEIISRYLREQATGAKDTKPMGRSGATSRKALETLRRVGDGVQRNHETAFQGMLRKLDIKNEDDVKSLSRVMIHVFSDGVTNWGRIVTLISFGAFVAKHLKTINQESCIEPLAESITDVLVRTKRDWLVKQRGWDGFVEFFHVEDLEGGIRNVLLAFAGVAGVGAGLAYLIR

CC1CCN(S(=O)(=O)N2CCC(C(=O)NC3CCCC3)CC2)CC1
AC50 [1]: > 52 µM (inactive)
EC50 [2]: > 120 µM (not active)
EC50 [3]: > 120 µM (not active)
AC50 [4]: > 70 µM (inactive)
EC50 [5]: > 120 µM (not active)

COc1ccc2nc(N3C(=O)C(c4c(O)[nH]c5ccccc45)=NC3=S)sc2c1
EC50 [6]: 0.744 µM (active)
EC50 [7]: 2.41 µM (active)
IC50 [8]: > 64 µM (inactive)
IC50 [9]: > 54 µM (active)
EC50 [2]: > 120 µM (not active)
EC50 [3]: 101 µM (active)
IC50 [10]: 37.6 µM (inactive)
EC50 [5]: 34.5 µM (active)

COC(=O)c1ccc(NC(=O)CSc2ccc(-c3ccccn3)nn2)cc1
IC50 [11]: 35.9 µM (inactive)
IC50 [12]: 35.9 µM (inactive)
AC50 [13]: 115 µM (active)
IC50 [14]: 35.9 µM (inactive)

Cc1ccc(C(=O)NNC(=S)NC(=O)c2ccco2)cc1
EC50 [6]: 1.87 µM (active)
EC50 [7]: 8.89 µM (active)
IC50 [15]: > 122 µM (inactive)
EC50 [16]: 7.87 µM (active)
IC50 [17]: 23.6 µM (active)
CC50 [18]: > 25 µM (active)

COc1ccc(-c2ccc3c(c2)[C@@H]2[C@@H](CCN2C(=O)C2CCOCC2)[C@@H](CO)N3C)cc1
AC50 [19]: 27.8 µM (active)

Cc1cccc(C(=O)Nc2cccc(NC(=O)c3ccc(C(C)(C)C)cc3)c2)c1
IC50 [20]: 32.8 µM (active)
IC50 [21]: 0.184 µM (active)
